Measured values published in patent US20220079912A1, “ANTICANCER FORMULATION” (University of Mississippi, priority 2018, published 2022).

Legend:
[1] = system: T98G human glioblastoma cells; test: Lactic acid accumulation in cell culture medium; type: cell-based; conditions: three hour period; for inhibition of lactic acid production (accumulation): different concentrations, FIG. 6, FIG. 7
Description: Acidification of the cell culture medium occurs because of the enhanced use of glycolysis by transformed cells (and resulting increase in lactic acid production). This led us to investigate whether GH reduced lactic acid levels in the cell culture medium.

[2] = system: T98G cells; test: Combination cytotoxicity with mitochondrial complex I inhibitors (% cell survival)
Description: Example 2: Gnetin H In Combination with Mitochondrial Complex I Inhibitors. […] The plus signs above the combination treatment bars indicates the value of % cell survival if the anti-proliferative effect was additive.
In FIGS. 9 A-B., the plus signs are placed above the combination treatment bars at the % cell survival value if the anti-proliferative effect was additive. […] Both T98G and MDA-MB-231 cells lack functional p53 but B16 are p53 wild type.
Example 4: Peony Seed extract. […] T98G cells were treated with different concentrations of purified GH (numbers indicate μM) or PSE (numbers indicate μg/ml) alone or in combination with a Paw Paw (PP) extract (2 μg/ml) for 48 hrs (FIG. 12 A). The plus signs are placed above the combination treatment bars at the % cell survival value if the anti-proliferative effect was additive. […] T98G cells were treated with different concentrations of purified GH or PSE in combination with a Paw Paw extract (2 μg/ml) for 48 hrs (FIG. 12 B).

[3] = system: TXNIP protein levels; test: Western blot of TXNIP protein, MDA-MB-231 cell line; type: cell-based, human; conditions: FIG. 16, FIG. 18; for TXNIP protein levels, agent alone: GH 8 μM 6 hrs or 3 hrs, 2-DG 25 mM, OXA 25 mM, BPX 25 μM, DCA 25 mM, 6 hr
Description: (§1) AMPK activation has been previously shown to phosphorylate and cause the degradation of TXNIP during energy stress (13).

[4] = system: ARRDC4 mRNA; test: Differential gene expression analysis (RNA-Seq) in T98G cells; type: cell-based, human; conditions: 2 hours, GH 8 μM, 2-DG 25 mM, Ph 100, minus = reduced, plus = increase, NC = no change
Description: (§2) GH inhibits expression of TXNIP and ARRDC4 mRNAs. […] Since the transcription factors (MondoA/Mlx complex) regulating the expression of the TXNIP gene is thought to be controlled by intermediates in the upper portion of the glycolytic pathway (12), GH may be negatively impacting this portion of glycolysis. Reduction in the levels of these intermediates by GH would prevent activation of the MondoA/Mlx transcription complex and would result in suppression of TXNIP transcription and TXNIP mRNA levels. Both of these gene products (TXNIP and ARRDC4) are thought to suppress glucose transport by enhancing degradation of glucose transporters (12).

[5] = system: TXNIP protein levels; test: Western blot of TXNIP protein, T98G cell line; type: cell-based, human; conditions: FIG. 15, FIG. 17; for TXNIP protein levels, agent alone: GH 8 μM 6 hrs or 3 hrs, 2-DG 25 mM, OXA 25 mM, BPX 25 μM, DCA 25 mM, 6 hr
Description: as §1

[6] = system: B16 cells; test: Lactic acid export (intracellular lactic acid levels); type: cell-based, mouse; conditions: 3 hours, FIG. 4
Experimental: To prevent the buildup of lactic acid within the cell a family of monocarboxylate transporters (MCT) functions to transport lactic acid out of the cell (10). To determine if GH inhibits lactic acid export from the cell, and in this manner inhibits the accumulation of lactic acid in the cell culture medium, intracellular lactic acid levels were measured. If GH inhibited lactic acid export, treatment of cells with GH would result in the increase in intracellular lactic acid levels. As a positive control the MCT1 inhibitor AZD3965 was used.

[7] = system: TXNIP mRNA; test: Differential gene expression analysis (RNA-Seq) in T98G cells; type: cell-based, human; conditions: 2 hours, GH 8 μM, 2-DG 25 mM, Ph 100, minus = reduced, plus = increase, NC = no change
Description: as §2

[8] = system: T98G cells; test: Glucose transport (2-NBDG accumulation); type: cell-based, human; conditions: treated for one hour followed by 2-NBDG for one hour
[9] = system: MDA-MB-231 cells; test: Glucose transport (2-NBDG accumulation); type: cell-based, human; conditions: MDA-MB-231, treated for one hour followed by 2-NBDG for one hour
Description: Phloretin, a known glucose transport inhibitor, was used as a positive control. Accumulation of 2-NDGB was inhibited by phloretin by 54% in T98G cells, by 31% in B16 cells and by 74% in MDA-MB-231 cells. The first panel for each cell line represents unstained cells, the second stained with 2-NBDG for one hour, the third treated with GH for one hour followed by 2-NBDG for one hour and the fourth treated with phloretin for one hour followed by 2-NBDG for one hour.

[10] = system: B16 cells; test: Glucose transport (2-NBDG accumulation); type: cell-based, mouse; conditions: B16, treated for one hour followed by 2-NBDG for one hour

For Oc1ccc(/C=C/c2cc(O)cc3c2[C@@H](c2cc(O)cc(O)c2)[C@H](c2ccc(O)cc2)O3)cc1 (relative stereo) [Vin, trans-ε viniferin, reference compound], the “inhibition of lactic acid production” value ([1]; 40 μM, FIG. 6) was 40% and the “synergistic cytotoxicity in combination with phenformin (Ph) at 100 μM” value [2] was “did not mimic GH activity”.

In the case of O=CC[C@@H](O)[C@H](O)[C@H](O)CO [2-DG, 2-deoxyglucose], the “TXNIP protein levels, in combination with Ph” value (shortened to “TXNIP protein levels … with Ph”) [3] was “reduction of TXNIP protein levels”, the “TXNIP protein levels, agent alone” value [3] was “increased TXNIP protein levels” and the “ARRDC4 mRNA fold change” value [4] was “+3 fold”. The “TXNIP protein levels … with Ph” value [5] was “reduction of TXNIP protein levels”, the “TXNIP protein levels, agent alone” value [5] was “increased TXNIP protein levels” and the “synergistic cytotoxicity in combination with phenformin (Ph) at 100 μM” value [2] was “not synergistically cytotoxic”.

Cc1[nH]nc(C(F)(F)F)c1Cc1sc2c(c1C(=O)N1C[C@](C)(O)CO1)c(=O)n(C)c(=O)n2C(C)C [AZD3965, reference compound] was tested, and the “accumulation of intracellular lactic acid above control values” [6] was about 4 fold.

O=C(O)C(=O)CBr [BPX, 3-bromopyruvate] was tested, and the “TXNIP protein levels … with Ph” value [3] was “reduced TXNIP protein levels”, the “TXNIP protein levels, agent alone” value [3] was “do not substantially reduce TXNIP protein levels” and the “TXNIP protein levels … with Ph” value [5] was “reduced TXNIP protein levels”. The “TXNIP protein levels, agent alone” value [5] was “do not substantially reduce TXNIP protein levels”.

With CC(=O)N[C@@H](CS)C(=O)O [NAC, n-acetylcysteine] the “inhibition of lactic acid production (accumulation)” value [1] was “did not inhibit lactic acid production”.

[H]/N=C(/N)N/C(=N/[H])NCCc1ccccc1 [Ph, phenformin, reference compound] was tested, and the “TXNIP mRNA fold change” value [7] was −2.5 fold.

Oc1ccc(C=Cc2cc(O)cc(O)c2)cc1 [Res, Resveratrol] was tested, and the “inhibition of lactic acid production (accumulation)” value [1] was “did not inhibit lactic acid production”.

For O=C(CCc1ccc(O)cc1)c1c(O)cc(O)cc1O [phloretin, Phloretin, reference compound], the “inhibition of accumulation of 2-NBDG” value [8] was 54%, the “inhibition of accumulation of 2-NBDG” value [9] was 74% and the “inhibition of accumulation of 2-NBDG” value [10] was 31%.
